Our source for the IC50 and ED50 values is ChEMBL document CHEMBL1126991, “Isatin oximes - A novel series of bioavailable non-NMDA antagonists” (Bioorg Med Chem Lett, 1993).

The term IC50 denotes the midpoint of a concentration-inhibition curve. The ED50 is the midpoint of the dose-response relation. Read a high ED50 as weaker potency.

For assay [1], the species on record is Mus musculus. As to the kind of experiment: Tested for the [Ca2+] i induced elevation using cultured mouse cortical neurons, exposed to 50 uM NMDA for 4 minutes. It is filed as functional.
The target of assay [2] is Glutamate receptor ionotropic, AMPA (Rattus norvegicus, UniProt P19490+P19491+P19492+P19493). The experiment in a line: Tested for the inhibition of binding of [3H]AMPA radioligand to Ionotropic glutamate receptor AMPA to cortical membranes from rat brain.
In assay [3] the target is Glutamate receptor ionotropic, kainate.
Description: Tested for the inhibition of binding of [3H]kainate radioligand to Ionotropic glutamate receptor kainate of cortical membranes from rat brain
For assay [4], the species on record is Mus musculus. The experiment in a line: Tested for the effective dosage required for the protection against AMPA induced seizures. Type of assay: functional.
For assay [5], the species on record is Rattus norvegicus. The experiment in a line: Tested for the ability to inhibit AMPA (5 uM) induced depolarizations in rat cortical wedge preparation. Type of assay: functional.
Assay [6] is filed under the species Mus musculus. As to the kind of experiment: Tested for the [Ca2+] i induced elevation using cultured mouse cortical neurons, exposed to 5 uM AMPA for 4 minutes. It is filed as functional.
Assay [7] is filed under the species Rattus norvegicus. As to the kind of experiment: Tested for the ability to inhibit NMDA (20 uM) induced depolarizations in rat cortical wedge preparation. Type of assay: functional.

`CNS(=O)(=O)c1cc2c(N=O)c(O)[nH]c2c2c1CCCC2`: the 50% inhibitory concentration (IC50) in assay [1] is over 30 µM; in assay [2] it was 2.8 µM; in assay [3] it was 30 µM; in assay [5], 5.2 µM; in assay [6], 11 µM; in assay [7], over 30 µM. Further, in assay [4], the ED50 came out at 30 mg/kg.

Compound `N#Cc1cc2c(cc1[N+](=O)[O-])=NC(=O)C(=O)N=2` registered an ED50 in assay [4] of 10 mg/kg.

Regarding `CN(C)S(=O)(=O)c1cc2c(N=O)c(O)[nH]c2c2c1CCCC2`, the IC50 in assay [1] was over 30 µM; in assay [2] it was 1.8 µM; in assay [3], 27 µM; in assay [5], 3.5 µM; in assay [6] it was 5.4 µM; in assay [7], over 30 µM. Further, the 50% effective dose (ED50) in assay [4] turned out to be 3 mg/kg.

`O=Nc1c(O)[nH]c2c3c(c([N+](=O)[O-])cc12)CCCC3`: the half-inhibitory concentration (IC50) in assay [1] is over 30 µM; in assay [2], 8.1 µM; in assay [3] it was over 30 µM; in assay [5], over 30 µM; in assay [6] it was over 30 µM; in assay [7], over 30 µM. In addition, the ED50 in assay [4] is over 30 mg/kg.

In the case of `NS(=O)(=O)c1cc2c(N=O)c(O)[nH]c2c2c1CCCC2`, the half-maximal inhibitory concentration (IC50) is over 30 µM in assay [1]; 2.8 µM in assay [2]; 24.5 µM in assay [3]; 2.5 µM in assay [5]; 3.5 µM in assay [6]; over 30 µM in assay [7]. The compound also came in with a median effective dose (ED50) in assay [4] of over 30 mg/kg.

In the case of `O=C1Nc2c(ccc3c2CCCC3)/C1=N/O`, the IC50 in assay [2] and in assay [3] was over 30 µM throughout. The same compound yielded a median effective dose (ED50) in assay [4] of over 30 mg/kg.

Take `NS(=O)(=O)c1cccc2c1c([N+](=O)[O-])cc1nc(O)c(O)nc12` [NBQX]: the IC50 is over 30 µM in assay [1], 0.3 µM in assay [5], 0.3 µM in assay [6] and over 30 µM in assay [7]. Moreover, the ED50 in assay [4] was found to be 10 mg/kg.
